The values that follow are results of earlier work, collected in patent publication US6391881B1, “Thiourea derivatives of dihydropyridine NPY antagonists” (Bristol-Myers Squibb Company, priority 2000, dated 2002).

The subject of series [1] is NPY-induced pressor response. The conditions noted are these: pithed rat.
Series [2] has as its system NPY-induced increase in intracellular Ca++ in SK-N-MG cells.
Series [3] has as its target T1, human neuroblastoma cells (SK-N-MC) (Homo sapiens, UniProt P25929).
T1 construct: displaces I-125 Bolton-Hunter labeled NPY in human neuroblastoma cells (SK-N-MC); host or cells: SK-N-MC human neuroblastoma cells (endogenous receptor; no transfection mentioned)
T1 sequence (P25929 1-384): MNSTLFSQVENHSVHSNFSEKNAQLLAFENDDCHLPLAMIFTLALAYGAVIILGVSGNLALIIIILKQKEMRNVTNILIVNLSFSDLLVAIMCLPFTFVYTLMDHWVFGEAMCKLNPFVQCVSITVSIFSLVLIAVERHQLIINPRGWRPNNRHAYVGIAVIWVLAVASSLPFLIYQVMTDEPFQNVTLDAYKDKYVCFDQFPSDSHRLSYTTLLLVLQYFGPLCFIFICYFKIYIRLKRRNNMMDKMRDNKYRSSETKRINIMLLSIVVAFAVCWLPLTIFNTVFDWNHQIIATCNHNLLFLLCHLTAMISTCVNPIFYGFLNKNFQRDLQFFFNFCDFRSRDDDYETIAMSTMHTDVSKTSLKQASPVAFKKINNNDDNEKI

Series [4] addresses T2, human neuroblastoma cells (Homo sapiens, UniProt P25929).
T2 construct: displacing I-125 labeled NPY and PYY in human neuroblastoma cells
T2 sequence (P25929 1-384): T1 sequence (P25929 1-384)

For series [5], the system named is NPY-related increases in diastolic blood pressure. The conditions noted are these: anesthetized guinea pig model.
Series [6] relates to NPY-induced contractions in guinea pig basilar artery.
In series [7] the test system is NPY-induced Ca++ entry in HEL cells.

On to `NC(N)=NCCC[C@@H](NC(=O)C(c1ccccc1)c1ccccc1)C(=O)NCc1ccc(O)cc1` [BIBP 3226], for which the “antagonism of NPY-induced pressor response (in words)” value in series [1] is listed as “antagonizing”. For the same compound, in series [2], the “antagonism of NPY-induced increase in intracellular Ca++ (in words)” value is listed as “antagonized”. The “displacement of I-125 Bolton-Hunter labeled NPY (in words)” value in series [3] is reported as “displaces”.

With `CN(C)CC1CCC(CN=C(N)c2ccc(C[C@@H](NC(=O)[C@@H](Cc3ccccc3)NS(=O)(=O)c3ccc4ccccc4c3)C(=O)N3CCCC3)cc2)CC1` (some centres unmarked) [SR 120819A], the “displacement of I-125 labeled NPY and PYY (in words)” value in series [4] is “displacing”. For the same compound, in series [5], the “antagonism of NPY-related increases in diastolic blood pressure (in words)” value is recorded as “antagonized”.

As to `O=P(O)(O)OC1[C@H](OP(=O)(O)O)[C@H](O)C(O)[C@H](O)[C@H]1OP(=O)(O)O` (stereo partly drawn) [D-Myo-inositol-1,2,6-triphosphate], the “antagonism of NPY-induced contractions (in words)” value in series [6] is reported as “potent but non-competitive antagonist”.

Consider `N=C(NCCCc1cnc[nH]1)NCCC(c1cc(F)cc(F)c1)c1ccccn1` (centres unmarked) [He 90481], for which, in series [7], the “antagonism of NPY-induced Ca++ entry (in words)” value was “weak but competitive antagonist” and the “pA2, antagonism of NPY-induced Ca++ entry” value is on record as 4.43.
